{"source": "patent US20050119188A1", "about": "“Method of treating breast cancer” (priority 2003, published 2005)", "key": {"MCF-7 cells": {"test_system": "MCF-7 cells", "experiment": "Growth studies in vitro: estrogen-stimulated MCF-7 cell proliferation (CellTiter-Glo luminescent viability assay)", "type": "cell-based, human", "conditions": "for IC50: single agent, E2 (1 nM)-stimulated MCF-7 cells, Day 6, read-out: IC50 value, inhibition of MCF-7 cell growth; for inhibition at 0.1 µM: read-out: inhibited cell proliferation", "procedure": "Cell lines. MCF-7 cells were provided from Dr. A. Brodie (University of Maryland School of Medicine, Baltimore, Md.) and cultured in DMEM supplemented with 5% fetal bovine serum (FBS) and 1% penicillin/streptomycin (P/S). MCF-7arom cells were provided from Dr. S. Chen (Beckman Research Institute of the City of Hope, Duarte, Calif.) and cultured in DMEM supplemented with 5% FBS and 750 μg/ml geneticin.\nGrowth studies in vitro. Six days prior to plating in 96-well plates, MCF-7 cells growing in T-75 flasks (30-50% confluent) were washed extensively with phenyl red-free DPBS and transferred to estrogen-depleted medium. Estrogen-depleted medium was phenyl red-free DMEM/F-12 containing 10% heat-treated and dextran-coated charcoal-treated fetal bovine serum and 1% penicillin/streptomycin solution. Estrogen depleted media was refreshed 3 days prior to plating. On Day 0, cells were seeded (1,200 cells/well) into 96-well plates in estrogen-depleted medium and allowed to attach. On Day 1 the media was aspirated and replaced in 6-well replicates with estrogen-depleted medium supplemented with E2 (1 nM), and 4-OH Tamoxifen (Sigma Chemical Company, St Louis, Mo. in the range 10 nM-10 μM), or Fulvestrant (Tocris, Ellisville, Mo. in the range 10 nM-1.0 μM), FTI (in the range 10 nM-10 μM), and a combination of the antiestrogens and FTI. Media containing drugs was refreshed on Day 3. The effects of treatment on cell proliferation were determined on Day 6 using the CellTiter-Glo luminescent viability assay (Promega Corp., Madison, Wis.)."}, "[1]": {"test_system": "MCF-7arom breast tumor xenografts", "experiment": "MCF-7arom breast tumor xenograft growth in vivo, FTI plus Anastrozole", "set-up": "species or system athymic nude mice", "conditions": "for induction of tumor regression / tumor regression: 28 days; for inhibited tumor growth compared to vehicle-treated animals: 28 days of treatment", "procedure": "(§1) Growth Studies in vivo. Female ovariectomized athymic nude mice were obtained from Charles River Laboratories (Worcester, Mass.). Androstenedione (Δ4A) pellets (25 mg and 15 mg, 90-day slow release) and 17β-estradiol (E2) pellets (0.72 mg, 60-day slow release) were from Innovative Research of America (Saratoga, Fla.). Anastrozole and Letrozole were obtained from Sequoia Research Products, Oxford, United Kingdom) and Tamoxifen was from Sigma Chemical Company.\nMCF-7arom breast tumor growth was performed as described previously (Lu et al., 1999, Breast Cancer Res. Treat., 57, 183-192; Long et al., 2002, Clin Cancer Res., 8, 2378-2388) with minor modifications. To determine the effect of combined FTI plus Anastrozole on the growth of MCF-7arom breast tumor xenografts, 2.5×10^6 MCF-7arom cells were inoculated into the right flank of the animals in 100 μl of Matrigel (BD Biosciences, Bedford, Mass.). Animals had been implanted with a 25 mg, 90-day Δ4A pellet the previous day. Fourteen days after cell inoculation, the animals were grouped (n=10) for treatment with: • 1) Vehicle • 2) Anastrozole (5 mg per kg [mpk], orally [p.o.], twice a day [b.i.d.]) • 3) FTI (20 mpk, p.o., b.i.d.) • 4) FTI (40 mpk, p.o., b.i.d.) • 5) FTI (60 mpk, p.o., b.i.d.) • 6) FTI (20 mpk, p.o., b.i.d.)+Anastrozole (5 mpk, p.o., b.i.d.) • 7) FTI (40 mpk, p.o., b.i.d.)+Anastrozole (5 mpk, p.o., b.i.d.) • 8) FTI (60 mpk, p.o., b.i.d.)+Anastrozole (5 mpk, p.o., b.i.d.)\nTreatment was continued for 28 days and tumor volumes were measured twice a week with calipers. Tumor volumes and animal body weights were recorded using LABCAT (Innovative Programming Associates Inc., Princeton, N.J.). Tumor volumes were calculated by the formula (w×l×h)/2."}, "[2]": {"test_system": "MCF-7 breast tumor xenografts", "experiment": "Estrogen-stimulated MCF-7 breast tumor xenograft growth in vivo, FTI plus Tamoxifen", "set-up": "species or system athymic nude mice", "procedure": "as §1\n(§2) MCF-7 breast tumor growth was performed as described previously (Osborne et al., 1995, J. Natl Cancer Inst., 87, 746-750) with minor modifications. To determine the effect of combined FTI plus Tamoxifen on the growth of MCF-7 breast tumor xenografts, 5.0×10^6 MCF-7 cells were inoculated into the right flank of the animals in 100 μl of Matrigel. Animals had been implanted with a 0.72 mg, 60-day pellet the previous day. Fourteen days after cell inoculation, the animals were grouped for treatment with: • 1) Vehicle • 2) Tamoxifen (25 mpk, p.o., q.d.) • 3) FTI (20 mpk, p.o., b.i.d.) • 4) FTI (40 mpk, p.o., b.i.d.) • 5) FTI (20 mpk, p.o., b.i.d.)+Tamoxifen (25 mpk, p.o., q.d.) • 6) FTI (40 mpk, p.o., b.i.d.)+Tamoxifen (25 mpk, p.o., q.d.)\n(§3) Treatment was continued for 28 days and tumor volumes were measured twice a week with calipers as described above."}, "[3]": {"test_system": "MCF-7arom breast tumor xenografts", "experiment": "MCF-7arom breast tumor xenograft growth in vivo, FTI plus Tamoxifen", "set-up": "species or system athymic nude mice", "conditions": "Day 10 of treatment", "procedure": "as §1\nas §2, with “To” for “MCF-7 breast tumor growth was performed as described previously (Osborne et al., 1995, J. Natl Cancer Inst., 87, 746-750) with minor modifications. To”, “MCF-7arom” for “MCF-7”, “5×10^6 MCF-7arom” for “5.0×10^6 MCF-7”, “15” for “0.72”, “90-day Δ4A” for “60-day”, “grouped (n=10)” for “grouped”\nas §3"}, "[4]": {"test_system": "MCF-7arom breast tumor xenografts", "experiment": "MCF-7arom breast tumor xenograft growth in vivo, FTI plus Letrozole", "set-up": "species or system athymic nude mice", "conditions": "Day 10 of treatment", "procedure": "as §1\nTo determine the effect of combined FTI plus Letrozole on the growth of MCF-7arom breast tumor xenografts, 5×10^6 MCF-7arom cells were inoculated into the right flank of the animals in 100 μl of Matrigel. Animals had been implanted with a 15 mg, 90-day Δ4A pellet the previous day. Fourteen days after cell inoculation, the animals were grouped (n=10) for treatment with: • 1) Vehicle • 2) Letrozole (2.5 mpk, p.o., once a day [q.d.]) • 3) FTI (20 mpk, p.o., b.i.d.) • 4) FTI (40 mpk, p.o., b.i.d.) • 5) FTI (20 mpk, p.o., b.i.d.)+Letrozole (2.5 mpk, p.o., q.d.) • 6) FTI (40 mpk, p.o., b.i.d.)+Letrozole (2.5 mpk, p.o., q.d.)\nas §3"}}, "note": "Like-named read-outs stand apart in the source and are kept apart here."}
{"compound": "CC/C(=C(\\c1ccc(O)cc1)c1ccc(OCCN(C)C)cc1)c1ccccc1", "note": "[4-OH Tamoxifen, reference compound]", "values": [{"measurement": "IC50", "setting": "MCF-7 cells", "result": 450, "unit": "nM"}, {"measurement": "inhibited cell proliferation", "setting": "MCF-7 cells; single-agent 4-OH Tamoxifen 1.0 μM (FIG. 1)", "result": 55, "unit": "%"}]}
{"compound": "CC(C)(C#N)c1cc(Cn2cncn2)cc(C(C)(C)C#N)c1", "note": "[Anastrozole, reference compound]", "values": [{"measurement": "induction of tumor regression", "setting": "[1]; Anastrozole 5 mpk b.i.d.", "result": "did not induce tumor regression"}, {"measurement": "inhibited tumor growth compared to vehicle-treated animals", "setting": "[1]; Anastrozole 5 mpk p.o. b.i.d.", "result": 62, "unit": "%"}]}
{"compound": "NC(=O)N1CCC(CC(=O)N2CCC([C@H]3c4ncc(Br)cc4CCc4cc(Cl)cc(Br)c43)CC2)CC1", "note": "[FTI]", "values": [{"measurement": "IC50", "setting": "MCF-7 cells; Homo sapiens, MCF7, 144 h", "result": 40, "unit": "nM"}, {"measurement": "inhibition at 0.1 µM", "setting": "MCF-7 cells; Homo sapiens, MCF7, single-agent FTI 0.1 μM, 4-OH Tamoxifen experiment (FIG. 1)", "result": 56, "unit": "%"}, {"measurement": "inhibition at 0.1 µM", "setting": "MCF-7 cells; Homo sapiens, MCF7, single-agent FTI 0.1 μM, Fulvestrant experiment (FIG. 2)", "result": 43, "unit": "%"}, {"measurement": "tumor regression, % of initial starting volume", "setting": "[2]; single-agent FTI 40 mpk b.i.d., Day 14 of treatment", "result": 57, "unit": "%"}, {"measurement": "inhibited tumor growth", "setting": "[3]; FTI 40 mpk p.o. b.i.d.", "result": 16, "unit": "%"}, {"measurement": "induction of tumor regression", "setting": "[1]; FTI 20 mpk b.i.d.", "result": "did not induce tumor regression"}, {"measurement": "inhibited tumor growth compared to vehicle-treated animals", "setting": "[1]; FTI 20 mpk p.o. b.i.d.", "result": 56, "unit": "%"}, {"measurement": "tumor regression", "setting": "[1]; single-agent FTI 40 mpk b.i.d.", "result": 16, "unit": "%"}, {"measurement": "tumor regression", "setting": "[1]; single-agent FTI 60 mpk b.i.d.", "result": 40, "unit": "%"}, {"measurement": "inhibited tumor growth", "setting": "[4]; FTI 40 mpk p.o. b.i.d.", "result": 16, "unit": "%"}]}
{"compound": "C[C@]12CC[C@@H]3c4ccc(O)cc4C[C@@H](CCCCCCCCC[S+]([O-])CCCC(F)(F)C(F)(F)F)[C@H]3[C@@H]1CC[C@@H]2O", "note": "(stereo partly shown) [Fulvestrant, reference compound]", "values": [{"measurement": "inhibition at 0.1 µM", "setting": "MCF-7 cells; Homo sapiens, MCF7, single-agent Fulvestrant 0.1 μM (FIG. 2)", "result": 53, "unit": "%"}]}
{"compound": "N#Cc1ccc(C(c2ccc(C#N)cc2)n2cncn2)cc1", "note": "[Letrozole]", "values": [{"measurement": "inhibited tumor growth", "setting": "[4]; Letrozole 2.5 mpk p.o. q.d.", "result": 127, "unit": "%"}, {"measurement": "tumor regression", "setting": "[4]; Letrozole 2.5 mpk p.o. q.d.", "result": 25, "unit": "%"}]}
{"compound": "CC/C(=C(\\c1ccccc1)c1ccc(OCCN(C)C)cc1)c1ccccc1", "note": "[Tamoxifen, reference compound]", "values": [{"measurement": "inhibited tumor growth", "setting": "[2]; Tamoxifen 25 mpk q.d., 14 days of treatment", "result": 29, "unit": "%"}, {"measurement": "inhibited tumor growth", "setting": "[3]; Tamoxifen 25 mpk p.o. q.d.", "result": 22, "unit": "%"}]}
